Data taken from US20100099113A1, “MINIMIZED SMALL PEPTIDES WITH HIGH AFFINITY FOR FACTOR VIII AND FACTOR VIII-LIKE PROTEINS” (Technische Universitat Muenchen, priority 2006, published 2010).
Where no end group is shown, it is not given here. [ ]: non-standard residue; d: D form. Bpa = N[C@@H](Cc1ccc(C(=O)c2ccccc2)cc1)C(=O)O; 2Nal = N[C@@H](Cc1ccc2ccccc2c1)C(=O)O; Abu = CC[C@H](N)C(=O)O

Columns and labels:
ReFacto = biological target: T1, ReFacto (Homo sapiens, UniProt P00451, DEL763-1656); experiment: Binding of ReFacto to peptide-coated resin; settings: peptide immobilized on resin; Table 1
T1 construct: purchased Wyeth-Ayerst Pharmacia and Upjohn; host or cells: CHO cells
T1 sequence (P00451 with tags, fused parts or gaps DEL763-1656 limits assumed): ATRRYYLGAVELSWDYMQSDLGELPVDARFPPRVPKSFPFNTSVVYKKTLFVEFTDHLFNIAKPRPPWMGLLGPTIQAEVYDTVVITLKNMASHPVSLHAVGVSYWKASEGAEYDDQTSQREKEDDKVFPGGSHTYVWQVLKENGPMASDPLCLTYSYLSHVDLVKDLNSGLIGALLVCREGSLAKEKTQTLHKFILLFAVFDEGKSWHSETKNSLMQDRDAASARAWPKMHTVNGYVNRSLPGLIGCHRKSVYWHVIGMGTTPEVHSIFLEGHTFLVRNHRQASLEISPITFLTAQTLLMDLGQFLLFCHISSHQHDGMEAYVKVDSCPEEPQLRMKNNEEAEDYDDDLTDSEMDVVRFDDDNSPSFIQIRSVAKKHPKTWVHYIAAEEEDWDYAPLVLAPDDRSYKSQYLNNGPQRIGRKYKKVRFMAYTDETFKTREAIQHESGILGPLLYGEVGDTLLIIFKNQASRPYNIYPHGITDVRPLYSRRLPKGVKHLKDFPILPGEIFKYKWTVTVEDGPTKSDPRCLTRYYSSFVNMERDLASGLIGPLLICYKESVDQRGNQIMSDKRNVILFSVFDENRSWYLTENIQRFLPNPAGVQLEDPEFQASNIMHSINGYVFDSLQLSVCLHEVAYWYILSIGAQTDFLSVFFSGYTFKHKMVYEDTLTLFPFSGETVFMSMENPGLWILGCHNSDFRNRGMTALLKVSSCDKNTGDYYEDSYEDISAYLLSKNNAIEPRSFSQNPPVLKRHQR
T1 sequence (P00451 1668-2351 limits assumed): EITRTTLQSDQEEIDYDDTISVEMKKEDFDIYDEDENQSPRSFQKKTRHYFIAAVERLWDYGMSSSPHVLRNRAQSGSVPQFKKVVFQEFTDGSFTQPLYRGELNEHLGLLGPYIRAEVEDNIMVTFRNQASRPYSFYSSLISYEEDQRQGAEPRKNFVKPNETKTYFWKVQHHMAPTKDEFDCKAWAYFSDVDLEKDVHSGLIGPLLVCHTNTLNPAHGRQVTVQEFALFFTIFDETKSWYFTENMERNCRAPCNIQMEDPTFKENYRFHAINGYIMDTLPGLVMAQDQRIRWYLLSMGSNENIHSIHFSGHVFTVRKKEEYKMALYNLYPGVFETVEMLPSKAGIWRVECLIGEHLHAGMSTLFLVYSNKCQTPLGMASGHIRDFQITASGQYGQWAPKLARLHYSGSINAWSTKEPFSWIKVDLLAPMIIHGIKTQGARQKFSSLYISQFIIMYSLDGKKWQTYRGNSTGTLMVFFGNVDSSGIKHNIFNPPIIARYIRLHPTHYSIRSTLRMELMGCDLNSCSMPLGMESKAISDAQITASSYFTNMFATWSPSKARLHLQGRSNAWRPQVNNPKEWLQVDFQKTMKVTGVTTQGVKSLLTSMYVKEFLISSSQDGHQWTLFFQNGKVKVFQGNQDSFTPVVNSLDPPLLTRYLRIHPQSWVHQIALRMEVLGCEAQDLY

[1] = biological target: T2, Plasma-derived (pd-) human Factor VIII (Homo sapiens, UniProt P00451); experiment: Binding of 125I-labeled pd-FVIII to peptide-coated Toyopearl resin (micro-beads assay); settings: peptide immobilized on Toyopearl AF-Epoxy-650M resin; 125I-pd-FVIII, 2 hours room temperature; percent of maximal achievable binding (anti-FVIII Mab 8860-coated resin); mean ± SD of four determinations
T2 construct: from tissue; host or cells: human blood plasma (FVIII concentrate)
Procedure: Peptides S1 to S84 were immobilized on the Toyopearl AF-Epoxy-650M resin (Tosoh Biosep) as described by Jungbauer et al. For immobilization, 2.5 mg of each peptide was dissolved in 0.25 mL of the immobilization buffer (0.2 M sodium bicarbonate, pH 10.3), and 0.036 g of the dry resin powder (corresponding to 0.125 mL of swollen resin) was added, followed by incubation of the mixture with gentle rotation for 48 hours. Upon incubation for 48 hours the resin was washed once with immobilization buffer, once with 1 M NaCl and then 3 times with binding buffer, and binding of ^125I-labeled pd-FVIII to the peptide-coated and control resin was tested. The coupling density of each peptide in each of the reported experiments was as mentioned in Table 1. The control 0.25 mL portion of the resin was similarly treated in parallel experiment in the absence of peptide and was subsequently used as a control (designated as Background) in ^125I-pd-FVIII binding experiments. ^125I-pd-FVIII Bound/Background ratios were calculated as the amount of ^125I-pd-FVIII, bound to an immobilized peptide, divided by that bound to uncoated control resin, prepared as described above. This ratio represents a Signal/Noise ratio for the micro-beads assay, since ^125I-pd-FVIII bound to peptide represents the signal value and ^125I-pd-FVIII bound to peptide-uncoated resin represents the background (noise) value.
Plasma-derived (pd-) human Factor VIII (FVIII) was purified from concentrate by immunoaffinity chromatography on an anti-FVIII monoclonal antibody column followed by subsequent concentration of pd-FVIII by ion-exchange chromatography using Resource Q HR5/5 column.
The resin with immobilized peptides was washed in the binding buffer (0.01 M Hepes, 0.1 M NaCl, 5 mM CaCl2, 0.01% Tween-80). Subsequently, the resin was diluted in the binding buffer as 1:7 slurry and aliquoted into Eppendorf tubes (40 μL per tube). ^125I-pd-FVIII (100000 cpm in 10 μL) was added to the tubes and the volume of the mixture was adjusted to 100 μL by adding 50 μL of the binding buffer containing 4% BSA to give a 2% final concentration of BSA. After 2 hours of incubation at room temperature on a rotator, the samples were washed 4 times in the binding. After each wash the tubes were centrifuged at 5000 rpm for 1 min in an Eppendorf microcentrifuge, supernatant was discarded, and the resin was re-suspended in the washing buffer, followed by centrifugation under the same conditions. After four washes the tubes with pellet without supernatant were counted for radioactivity. The resin without peptide was processed similarly to account for non-specific pd-FVIII binding to tubes and resin itself, and the radioactivity in this control tube was considered as a background value. Since ^125I-pd-FVIII contains the some fraction damaged during radiolabeling, binding was calculated as a percent of maximal achievable binding, determined in separate experiment with anti-FVIII Mab 8860-coated resin.
All the measurements were performed in duplicates. Each experiment was performed using two independently prepared immobilized peptide samples. The data presented in each table are the mean values of the four determinations: duplicate determination in the two assays performed with beads on which peptides were independently immobilized on the different days. The value of standard deviation of the above quadruplicate determinations (duplicate determinations in two independent experiments) were typically less than 10% of the measured values of ^125I-pd-FVIII binding to peptides.

T2 sequence (P00451 20-1667 limits assumed, one chain of several): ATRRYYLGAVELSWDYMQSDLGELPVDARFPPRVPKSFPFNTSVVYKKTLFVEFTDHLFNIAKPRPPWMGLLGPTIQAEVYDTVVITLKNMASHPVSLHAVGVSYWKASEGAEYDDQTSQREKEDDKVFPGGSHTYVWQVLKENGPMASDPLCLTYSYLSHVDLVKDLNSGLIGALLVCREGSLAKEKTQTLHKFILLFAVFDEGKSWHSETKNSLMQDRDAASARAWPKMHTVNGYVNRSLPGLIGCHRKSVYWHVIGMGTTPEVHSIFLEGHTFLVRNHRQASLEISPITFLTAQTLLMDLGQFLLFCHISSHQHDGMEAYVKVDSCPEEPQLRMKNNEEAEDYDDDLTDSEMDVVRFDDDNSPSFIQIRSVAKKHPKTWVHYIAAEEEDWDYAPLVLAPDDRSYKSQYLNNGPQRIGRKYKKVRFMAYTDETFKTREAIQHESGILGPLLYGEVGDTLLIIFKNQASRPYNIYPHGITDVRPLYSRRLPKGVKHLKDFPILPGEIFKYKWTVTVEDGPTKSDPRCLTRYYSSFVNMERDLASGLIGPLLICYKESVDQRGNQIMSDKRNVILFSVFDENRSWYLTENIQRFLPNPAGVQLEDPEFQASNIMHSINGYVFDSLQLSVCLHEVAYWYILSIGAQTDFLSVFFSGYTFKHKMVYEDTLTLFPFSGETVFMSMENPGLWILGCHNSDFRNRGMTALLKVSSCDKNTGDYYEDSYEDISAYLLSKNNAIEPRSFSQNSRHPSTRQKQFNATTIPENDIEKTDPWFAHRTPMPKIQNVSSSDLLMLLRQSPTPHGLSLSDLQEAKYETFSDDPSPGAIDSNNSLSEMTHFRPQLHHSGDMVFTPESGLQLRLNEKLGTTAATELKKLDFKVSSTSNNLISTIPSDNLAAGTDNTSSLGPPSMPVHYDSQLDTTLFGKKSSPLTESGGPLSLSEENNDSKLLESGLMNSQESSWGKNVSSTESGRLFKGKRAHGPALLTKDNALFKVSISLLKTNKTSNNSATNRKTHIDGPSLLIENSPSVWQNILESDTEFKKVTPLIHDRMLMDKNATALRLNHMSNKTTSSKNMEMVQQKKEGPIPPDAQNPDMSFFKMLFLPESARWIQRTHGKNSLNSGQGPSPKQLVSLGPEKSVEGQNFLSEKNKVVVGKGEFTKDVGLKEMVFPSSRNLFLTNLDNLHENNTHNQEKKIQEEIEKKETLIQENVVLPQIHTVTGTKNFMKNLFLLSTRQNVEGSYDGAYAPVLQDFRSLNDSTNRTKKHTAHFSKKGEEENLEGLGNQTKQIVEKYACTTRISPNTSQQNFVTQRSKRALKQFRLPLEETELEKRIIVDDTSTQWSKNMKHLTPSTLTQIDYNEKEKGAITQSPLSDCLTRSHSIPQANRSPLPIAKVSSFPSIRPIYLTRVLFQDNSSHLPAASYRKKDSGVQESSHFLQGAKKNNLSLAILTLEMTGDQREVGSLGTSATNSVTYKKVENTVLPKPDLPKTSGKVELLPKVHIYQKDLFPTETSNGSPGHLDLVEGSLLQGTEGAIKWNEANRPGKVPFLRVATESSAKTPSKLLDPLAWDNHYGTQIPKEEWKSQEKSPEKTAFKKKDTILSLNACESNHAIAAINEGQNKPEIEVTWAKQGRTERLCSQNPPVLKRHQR

Row | Substance | % Binding ReFacto (ReFacto) [%] | % Binding pdFVIII [1] [%]
1 | Abu-W-E-Y-C [S50] | 36.4 ± 2.4 | 35.3 ± 2.4
2 | Ac-E-S-W-E-Y-C (Ac-ESWEYC) [S45] | 38.4 ± 2.6 | 36.4 ± 2.6
3 | C-S-W-E-Y [S20] | 45.3 ± 3.1 | 48.6 ± 3.3
4 | E-S-W-E-Y-C (ESWEYC) [S44] | 35.1 ± 2.4 | 38.0 ± 2.4
5 | S-W-D-Y-C [S43] | 35.6 ± 2.6 | 48.2 ± 2.8
6 | S-W-E-Phg-C [S53] | 42.5 ± 2.8 | 38.1 ± 2.7
7 | T-W-E-Y-C [S46] | 25.1 ± 1.9 | 37.0 ± 2.1
8 | Y-H-S-W-D-Y-C (YHSWDYC) [S48] | 40.2 ± 2.9 | 52.0 ± 3.1
9 | Y-H-S-W-E-Bip(4,4′)-C [S55] | 36.2 ± 2.1 | 51.5 ± 2.9
10 | Y-H-T-W-D-Y-C (YHTWDYC) [S52] | 51.2 ± 3.4 | 47.5 ± 3.3
11 | Y-H-T-W-E-Y-C (YHTWEYC) [S47] | 38.9 ± 2.8 | 47.5 ± 2.9
12 | YF[Abu]WEYC [S36] | 53.8 ± 5.0 | 62.0 ± 4.2
13 | YF[Abu]WEYC [S49] | 54.4 ± 3.8 | 64.5 ± 4.0
14 | YHSWE[2Nal]C [S56] | 51.5 ± 3.4 | 51.5 ± 3.4
15 | YHSWE[Bpa]C [S38] | 59.2 ± 4.8 | 52.3 ± 4.1
16 | YHS[2Nal]EYC [S42] | 47.8 ± 2.1 | 60.3 ± 2.2
17 | YHS[Bpa]E[Bpa]C [S51] | 49.3 ± 3.5 | 63.4 ± 3.8
18 | YH[Abu]WEYC [S54] | 44.4 ± 2.8 | 32.3 ± 2.6
